Assay: xn = mol fraction of the nth substance listed
Conditions: Liquid

CO [methanol] + O
Conditions	mass density [kg/m3]
283.15 K, x2 = 0.08	813.74
283.15 K, x2 = 0.1581	827.14
283.15 K, x2 = 0.2401	842.01
283.15 K, x2 = 0.3206	857.15
283.15 K, x2 = 0.3987	872.39
283.15 K, x2 = 0.4799	888.59
283.15 K, x2 = 0.56	905.16
283.15 K, x2 = 0.6407	922.05
283.15 K, x2 = 0.7201	938.63
283.15 K, x2 = 0.8	954.82
283.15 K, x2 = 0.8801	970.45
283.15 K, x2 = 0.9603	988.05
288.15 K, x2 = 0.08	809.22
288.15 K, x2 = 0.1581	822.75
288.15 K, x2 = 0.2401	837.75
288.15 K, x2 = 0.3206	853.02
288.15 K, x2 = 0.3987	868.39
288.15 K, x2 = 0.4799	884.77
288.15 K, x2 = 0.56	901.56
288.15 K, x2 = 0.6407	918.74
288.15 K, x2 = 0.7201	935.71
288.15 K, x2 = 0.8	952.47
288.15 K, x2 = 0.8801	968.91
288.15 K, x2 = 0.9603	987.31
293.15 K, x2 = 0.08	804.67
293.15 K, x2 = 0.1581	818.33
293.15 K, x2 = 0.2401	833.45
293.15 K, x2 = 0.3206	848.84
293.15 K, x2 = 0.3987	864.35
293.15 K, x2 = 0.4799	880.88
293.15 K, x2 = 0.56	897.88
293.15 K, x2 = 0.6407	915.33
293.15 K, x2 = 0.7201	932.67
293.15 K, x2 = 0.8	949.98
293.15 K, x2 = 0.8801	967.17
293.15 K, x2 = 0.9603	986.29
298.15 K, x2 = 0.08	800.1
298.15 K, x2 = 0.1581	813.88
298.15 K, x2 = 0.2401	829.11
298.15 K, x2 = 0.3206	844.62
298.15 K, x2 = 0.3987	860.25
298.15 K, x2 = 0.4799	876.94
298.15 K, x2 = 0.56	894.14
298.15 K, x2 = 0.6407	911.85
298.15 K, x2 = 0.7201	929.54
298.15 K, x2 = 0.8	947.37
298.15 K, x2 = 0.8801	965.23
298.15 K, x2 = 0.9603	985.01
303.15 K, x2 = 0.08	795.52
303.15 K, x2 = 0.1581	809.4
303.15 K, x2 = 0.2401	824.74
303.15 K, x2 = 0.3206	840.35
303.15 K, x2 = 0.3987	856.1
303.15 K, x2 = 0.4799	872.93
303.15 K, x2 = 0.56	890.32
303.15 K, x2 = 0.6407	908.28
303.15 K, x2 = 0.7201	926.31
303.15 K, x2 = 0.8	944.61
303.15 K, x2 = 0.8801	963.12
303.15 K, x2 = 0.9603	983.49
308.15 K, x2 = 0.08	790.9
308.15 K, x2 = 0.1581	804.88
308.15 K, x2 = 0.2401	820.31
308.15 K, x2 = 0.3206	836.03
308.15 K, x2 = 0.3987	851.89
308.15 K, x2 = 0.4799	868.86
308.15 K, x2 = 0.56	886.42
308.15 K, x2 = 0.6407	904.62
308.15 K, x2 = 0.7201	922.97
308.15 K, x2 = 0.8	941.73
308.15 K, x2 = 0.8801	960.83
308.15 K, x2 = 0.9603	981.76
313.15 K, x2 = 0.08	786.24
313.15 K, x2 = 0.1581	800.3
313.15 K, x2 = 0.2401	815.84
313.15 K, x2 = 0.3206	831.64
313.15 K, x2 = 0.3987	847.61
313.15 K, x2 = 0.4799	864.71
313.15 K, x2 = 0.56	882.44
313.15 K, x2 = 0.6407	900.87
313.15 K, x2 = 0.7201	919.53
313.15 K, x2 = 0.8	938.72
313.15 K, x2 = 0.8801	958.38
313.15 K, x2 = 0.9603	979.82
318.15 K, x2 = 0.08	781.54
318.15 K, x2 = 0.1581	795.69
318.15 K, x2 = 0.2401	811.3
318.15 K, x2 = 0.3206	827.2
318.15 K, x2 = 0.3987	843.26
318.15 K, x2 = 0.4799	860.49
318.15 K, x2 = 0.56	878.38
318.15 K, x2 = 0.6407	897.03
318.15 K, x2 = 0.7201	915.98
318.15 K, x2 = 0.8	935.58
318.15 K, x2 = 0.8801	955.76
318.15 K, x2 = 0.9603	977.69
323.15 K, x2 = 0.08	776.8
323.15 K, x2 = 0.1581	791.04
323.15 K, x2 = 0.2401	806.71
323.15 K, x2 = 0.3206	822.69
323.15 K, x2 = 0.3987	838.85
323.15 K, x2 = 0.4799	856.2
323.15 K, x2 = 0.56	874.24
323.15 K, x2 = 0.6407	893.1
323.15 K, x2 = 0.7201	912.32
323.15 K, x2 = 0.8	932.31
323.15 K, x2 = 0.8801	952.99
323.15 K, x2 = 0.9603	975.39
328.15 K, x2 = 0.08	772.01
328.15 K, x2 = 0.1581	786.32
328.15 K, x2 = 0.2401	802.07
328.15 K, x2 = 0.3206	818.11
328.15 K, x2 = 0.3987	834.36
328.15 K, x2 = 0.4799	851.82
328.15 K, x2 = 0.56	870.01
328.15 K, x2 = 0.6407	889.07
328.15 K, x2 = 0.7201	908.56
328.15 K, x2 = 0.8	928.92
328.15 K, x2 = 0.8801	950.06
328.15 K, x2 = 0.9603	972.92
333.15 K, x2 = 0.08	767.16
333.15 K, x2 = 0.1581	781.54
333.15 K, x2 = 0.2401	797.35
333.15 K, x2 = 0.3206	813.44
333.15 K, x2 = 0.3987	829.79
333.15 K, x2 = 0.4799	847.36
333.15 K, x2 = 0.56	865.69
333.15 K, x2 = 0.6407	884.94
333.15 K, x2 = 0.7201	904.69
333.15 K, x2 = 0.8	925.41
333.15 K, x2 = 0.8801	947
333.15 K, x2 = 0.9603	970.28
338.15 K, x2 = 0.08	762.24
338.15 K, x2 = 0.1581	776.67
338.15 K, x2 = 0.2401	792.56
338.15 K, x2 = 0.3206	808.71
338.15 K, x2 = 0.3987	825.13
338.15 K, x2 = 0.4799	842.81
338.15 K, x2 = 0.56	861.28
338.15 K, x2 = 0.6407	880.72
338.15 K, x2 = 0.7201	900.71
338.15 K, x2 = 0.8	921.77
338.15 K, x2 = 0.8801	943.79
338.15 K, x2 = 0.9603	967.5
343.15 K, x2 = 0.08	757.24
343.15 K, x2 = 0.1581	771.74
343.15 K, x2 = 0.2401	787.68
343.15 K, x2 = 0.3206	803.91
343.15 K, x2 = 0.3987	820.39
343.15 K, x2 = 0.4799	838.17
343.15 K, x2 = 0.56	856.77
343.15 K, x2 = 0.6407	876.4
343.15 K, x2 = 0.7201	896.64
343.15 K, x2 = 0.8	918.02
343.15 K, x2 = 0.8801	940.45
343.15 K, x2 = 0.9603	964.57
348.15 K, x2 = 0.08	752.17
348.15 K, x2 = 0.1581	766.72
348.15 K, x2 = 0.2401	782.71
348.15 K, x2 = 0.3206	799
348.15 K, x2 = 0.3987	815.56
348.15 K, x2 = 0.4799	833.44
348.15 K, x2 = 0.56	852.18
348.15 K, x2 = 0.6407	871.97
348.15 K, x2 = 0.7201	892.45
348.15 K, x2 = 0.8	914.14
348.15 K, x2 = 0.8801	936.97
348.15 K, x2 = 0.9603	961.5
353.15 K, x2 = 0.08	747.01
353.15 K, x2 = 0.1581	761.6
353.15 K, x2 = 0.2401	777.65
353.15 K, x2 = 0.3206	794
353.15 K, x2 = 0.3987	810.62
353.15 K, x2 = 0.4799	828.62
353.15 K, x2 = 0.56	847.48
353.15 K, x2 = 0.6407	867.48
353.15 K, x2 = 0.7201	888.15
353.15 K, x2 = 0.8	910.15
353.15 K, x2 = 0.8801	933.37
353.15 K, x2 = 0.9603	958.3
